Measurements as given in patent US10780090B2, “Heteroaryl compounds useful as inhibitors of SUMO activating enzyme” (Millennium Pharmaceuticals, Inc., priority 2014, dated 2020).

Biological target: recombinant human SAE enzyme (Homo sapiens (Human), UniProt Q9UBT2)
Assay: SAE HTRF enzyme assay
Assay type: biochemical
Conditions: for inhibition at 0.111 µM: read-out: Percent Inhibition
Summary of the method: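 HTRF read-out using Eu-cryptate anti-Flag and allophycocyanin anti-GST antibodies, added with EDTA stop buffer and read after 2 h at 24 °C. The preceding reaction ran 105 min at 24 °C: 0.11 nM recombinant SAE, 0.5 μM ATP, Sumo-Flag, Ubc9-GST, pH 7.5. Values given as single-concentration inhibition or IC50.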

Sequence of recombinant human SAE enzyme (Q9UBT2 whole entry): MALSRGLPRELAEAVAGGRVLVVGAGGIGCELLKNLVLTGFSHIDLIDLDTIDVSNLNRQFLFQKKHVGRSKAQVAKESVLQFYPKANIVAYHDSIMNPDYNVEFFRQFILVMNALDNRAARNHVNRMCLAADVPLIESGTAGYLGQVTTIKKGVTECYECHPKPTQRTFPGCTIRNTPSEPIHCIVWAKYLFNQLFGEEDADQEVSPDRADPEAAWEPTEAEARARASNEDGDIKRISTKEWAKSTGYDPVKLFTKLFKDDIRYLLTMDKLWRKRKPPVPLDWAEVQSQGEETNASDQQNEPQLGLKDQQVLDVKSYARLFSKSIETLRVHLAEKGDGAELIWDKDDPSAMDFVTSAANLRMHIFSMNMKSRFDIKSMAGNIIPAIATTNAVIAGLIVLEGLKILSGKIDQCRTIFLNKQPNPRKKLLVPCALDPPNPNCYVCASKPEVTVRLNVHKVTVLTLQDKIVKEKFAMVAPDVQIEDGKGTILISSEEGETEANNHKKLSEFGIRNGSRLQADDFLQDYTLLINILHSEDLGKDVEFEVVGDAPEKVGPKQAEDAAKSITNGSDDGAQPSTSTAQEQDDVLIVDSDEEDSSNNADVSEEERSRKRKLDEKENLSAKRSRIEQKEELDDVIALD
Sequence of recombinant human SAE enzyme (Q9UBE0 whole entry partner): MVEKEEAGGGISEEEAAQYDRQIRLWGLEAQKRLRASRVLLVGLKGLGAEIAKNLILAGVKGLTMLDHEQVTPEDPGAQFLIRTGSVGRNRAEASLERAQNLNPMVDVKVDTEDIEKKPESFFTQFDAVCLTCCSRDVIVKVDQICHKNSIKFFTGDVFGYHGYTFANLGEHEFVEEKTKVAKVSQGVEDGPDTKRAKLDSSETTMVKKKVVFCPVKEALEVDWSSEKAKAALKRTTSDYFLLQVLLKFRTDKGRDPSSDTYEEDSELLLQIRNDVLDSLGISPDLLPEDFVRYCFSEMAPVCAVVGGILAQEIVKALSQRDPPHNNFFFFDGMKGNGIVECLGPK

Structure (SMILES) | inhibition at 0.111 µM (Concentration 0.111 μM) [%] | IC50 (class symbols A/B/C) [nM] | Percent Inhibition (Concentration 0.111 μM) | Percent Inhibition (SAE inhibition at compound concentration 0.111 μM) [%] | IC50 (SAE inhibition, class symbols, legend in nM) [nM]
Cc1sc(C(=O)c2cncnc2N[C@@H]2C[C@H](COS(N)(=O)=O)[C@@H](O)C2)cc1S(=O)(=O)c1cccc(Cl)c1 [I-181, [(1R,2S,4R)-4-{[5-({4-[(3-chlorophenyl)sulfonyl]-5-methyl-2-thienyl}carbonyl)pyrimidin-4-yl]amino}-2-hydroxycyclopentyl]methyl sulfamate] | 82 | 10 to 100 | – | – | –
CN[C@H](c1cccc(Cl)c1)c1csc(C(=O)c2cncnc2N[C@@H]2C[C@H](COS(N)(=O)=O)[C@@H](O)C2)c1 (mixture of isomers) [I-47, [(1R,2S,4R)-4-{[5-({4-[(R)-(3-chlorophenyl)(methylamino)methyl]-2-thienyl}carbonyl)pyrimidin-4-yl]amino}-2-hydroxycyclopentyl]methyl sulfamate and [(1R,2S,4R)-4-{[5-({4-[(S)-(3-chlorophenyl)(methylamino)methyl]-2-thienyl}carbonyl)pyrimidin-4-yl]amino}-2-hydroxycyclopentyl]methyl sulfamate] | – | < 10 | 97 | – | –
NS(=O)(=O)OC[C@H]1C[C@@H](Nc2ncncc2C(=O)c2cc([C@@]3(c4ccccc4)CCCO3)cs2)C[C@@H]1O (single isomer, unassigned) [I-32a, [(1R,2S,4R)-2-hydroxy-4-{[5-({4-[(2S)-2-phenyltetrahydrofuran-2-yl]-2-thienyl}carbonyl)pyrimidin-4-yl]amino}cyclopentyl]methyl sulfamate or [(1R,2S,4R)-2-hydroxy-4-{[5-({4-[(2R)-2-phenyltetrahydrofuran-2-yl]-2-thienyl}carbonyl)pyrimidin-4-yl]amino}cyclopentyl]methyl sulfamate] | – | < 10 | 98 | – | –
Cc1sc(C(=O)c2cncnc2N[C@@H]2C[C@H](COS(N)(=O)=O)[C@@H](O)C2)cc1CN1CCc2cccnc21 [I-171, {(1R,2S,4R)-4-[(5-{[4-(2,3-dihydro-1H-pyrrolo[2,3-b]pyridin-1-ylmethyl)-5-methyl-2-thienyl]carbonyl}pyrimidin-4-yl)amino]-2-hydroxycyclopentyl}methyl sulfamate] | 90 | 10 to 100 | – | – | –
NS(=O)(=O)OC[C@H]1C[C@@H](Nc2ncncc2C(=O)c2cc([C@@H]3NCCc4ccc(Br)cc43)c(Cl)s2)[C@H](O)[C@@H]1O (single isomer, unassigned) [I-259b, [(1R,2R,3S,4R)-4-{[5-({4-[(1R)-7-bromo-1,2,3,4-tetrahydroisoquinolin-1-yl]-5-chloro-2-thienyl}carbonyl)pyrimidin-4-yl]amino}-2,3-dihydroxycyclopentyl]methyl sulfamate or [(1R,2R,3S,4R)-4-{[5-({4-[(1S)-7-bromo-1,2,3,4-tetrahydroisoquinolin-1-yl]-5-chloro-2-thienyl}carbonyl)pyrimidin-4-yl]amino}-2,3-dihydroxycyclopentyl]methyl sulfamate] | – | < 10 | 97 | – | –
NS(=O)(=O)OC[C@H]1C[C@@H](Nc2ncncc2C(=O)c2cc(CO)co2)C[C@@H]1O [I-216, [(1R,2S,4R)-2-Hydroxy-4-{(5-[4-(hydroxymethyl)-2-furoyl]pyrimidin-4-yl}amino)cyclopentyl]methyl sulfamate] | 36 | 100 to 1000 | – | – | –
NS(=O)(=O)OC[C@H]1C[C@@H](Nc2ncncc2C(=O)c2cc(Cc3ccccc3)c(Cl)s2)[C@@H](F)[C@@H]1O [I-162, [(1R,2R,3R,4R)-4-({5-[(4-Benzyl-5-chloro-2-thienyl)carbonyl]pyrimidin-4-yl}amino) 3-fluoro-2-hydroxycyclopentyl]methyl sulfamate] | 91 | 10 to 100 | – | – | –
NS(=O)(=O)OC[C@H]1C[C@@H](Nc2ncncc2C(=O)c2cc([C@H](O)c3cc(Br)ccc3F)cs2)C[C@@H]1O (single isomer, unassigned) [I-19b, [(1R,2S,4R)-4-{[5-({4-[(R)-(5-bromo-2-fluorophenyl)(hydroxy)methyl]-2-thienyl}carbonyl)pyrimidin-4-yl]amino}-2-hydroxycyclopentyl]methyl sulfamate or [(1R,2S,4R)-4-{[5-({4-[(S)-(5-bromo-2-fluorophenyl)(hydroxy)methyl]-2-thienyl}carbonyl)pyrimidin-4-yl]amino}-2-hydroxycyclopentyl]methyl sulfamate] | – | < 10 | 99 | – | –
NS(=O)(=O)OC[C@H]1C[C@@H](Nc2ncncc2C(=O)c2cc(CC3=CCOCC3)cs2)C[C@@H]1O [I-196, {(1R,2S,4R)-4-[(5-{[4-(3,6-dihydro-2H-pyran-4-ylmethyl)-2-thienyl]carbonyl}pyrimidin-4-yl)amino]-2-hydroxycyclopentyl}methyl sulfamate] | 63 | 10 to 100 | – | – | –
C[C@](N)(c1cccc(Br)c1)c1csc(C(=O)c2cncnc2N[C@@H]2C[C@H](COS(N)(=O)=O)[C@@H](O)[C@H]2O)c1 (single isomer, unassigned) [I-27a, [(1R,2R,3S,4R)-4-{[5-({4-[(1S)-1-amino-1-(3-bromophenyl)ethyl]-2-thienyl}carbonyl)pyrimidin-4-yl]amino}-2,3-dihydroxycyclopentyl]methyl sulfamate or [(1R,2R,3S,4R)-4-{[5-({4-[(1R)-1-amino-1-(3-bromophenyl)ethyl]-2-thienyl}carbonyl)pyrimidin-4-yl]amino}-2,3-dihydroxycyclopentyl]methyl sulfamate] | – | < 10 | 96 | – | –
NS(=O)(=O)OC[C@H]1C[C@@H](Nc2ncncc2C(=O)c2cc(C(=O)c3ccccc3)c(Cl)s2)C[C@@H]1O [I-215, [(1R,2S,4R)-4-({5-(4-Benzoyl-5-chlor-2-thienyl)carbonyl]pyrimidin-4-yl}amino)-2-hydroxycyclopentyl]methyl sulfamate] | – | 100 to 1000 | 36 | – | –
Cc1sc(C(=O)c2cncnc2N[C@@H]2C[C@H](COS(N)(=O)=O)[C@@H](O)C2)cc1[C@H]1NCCc2ccccc21 (single isomer, unassigned) [I-292b, [(1R,2S,4R)-2-hydroxy-4-{[5-({5-methyl-4-[(1S)-1,2,3,4-tetrahydroisoquinolin-1-yl]-2-thienyl}carbonyl)pyrimidin-4-yl]amino}cyclopentyl]methyl sulfamate or [(1R,2S,4R)-2-hydroxy-4-{[5-({5-methyl-4-[(1R)-1,2,3,4-tetrahydroisoquinolin-1-yl]-2-thienyl}carbonyl)pyrimidin-4-yl]amino}cyclopentyl]methyl sulfamate] | – | – | – | 87 | 10 to 100
NS(=O)(=O)OC[C@H]1C[C@@H](Nc2ncncc2C(=O)c2cc(Cc3cccc(Cl)c3F)cs2)C[C@@H]1O [I-84, {(1R,2S,4R)-4-[(5-{[4-(3-chloro-2-fluorobenzyl)-2-thienyl]carbonyl}pyrimidin-4-yl)amino]-2-hydroxycyclopentyl}methyl sulfamate] | 98 | < 10 | – | – | –
NS(=O)(=O)OC[C@H]1C[C@@H](Nc2ncncc2C(=O)c2cc(C3SCCc4ccc(Cl)cc43)cs2)[C@H](O)[C@@H]1O (single isomer, unassigned) [I-278b, [(1R,2R,3S,4R)-4-{[5-({4-[(1R)-7-chloro-3,4-dihydro-1H-isothiochromen-1-yl]-2-thienyl}carbonyl)pyrimidin-4-yl]amino}-2,3-dihydroxycyclopentyl]methyl sulfamate or [(1R,2R,3S,4R)-4-{[5-({4-[(1S)-7-chloro-3,4-dihydro-1H-isothiochromen-1-yl]-2-thienyl}carbonyl)pyrimidin-4-yl]amino}-2,3-dihydroxycyclopentyl]methyl sulfamate] | – | < 10 | 99 | – | –
CC(C)Oc1ccccc1OCc1csc(C(=O)c2cncnc2N[C@@H]2C[C@H](COS(N)(=O)=O)[C@@H](O)C2)c1 [I-201, [(1R,2S,4R)-2-hydroxy-4-{[5-({4-[(2-isopropoxyphenoxy)methyl]-2-thienyl}carbonyl)pyrimidin-4-yl]amino}cyclopentyl]methyl sulfamate] | 60 | 10 to 100 | – | – | –
NS(=O)(=O)OC[C@H]1C[C@@H](Nc2ncncc2C(=O)c2cc(S(=O)(=O)c3ccccc3)cs2)C[C@@H]1O [I-200, {(1R,2S,4R)-2-Hydroxy-4-[(5-[4-(phenylsulfonyl)-2-thienyl]carbonyl}pyrimidin-4-yl)amino]cyclopentyl}methyl sulfamate] | – | 10 to 100 | 62 | – | –
NS(=O)(=O)OC[C@H]1C[C@@H](Nc2ncncc2C(=O)c2cc([C@H](O)c3cccc(Cl)c3)co2)C[C@@H]1O (single isomer, unassigned) [I-42b, {(1R,2S,4R)-4-[(5-{4-[(R)-(3-chlorophenyl)(hydroxy)methyl]-2-furoyl}pyrimidin-4-yl)amino]-2-hydroxycyclopentyl}methyl sulfamate or {(1R,2S,4R)-4-[(5-{4-[(S)-(3-chlorophenyl)(hydroxy)methyl]-2-furoyl}pyrimidin-4-yl)amino]-2-hydroxycyclopentyl}methyl sulfamate] | – | < 10 | 99 | – | –
CC(O)(c1cccc(Cl)c1)c1csc(C(=O)c2cncnc2N[C@@H]2C[C@H](COS(N)(=O)=O)[C@@H](O)C2)c1 (single isomer, unassigned) [I-5a, [(1R,2S,4R)-4-{[5-({4-[(1R)-1-(3-chlorophenyl)-1-hydroxyethyl]-2-thienyl}carbonyl)pyrimidin-4-yl]amino}-2-hydroxycyclopentyl]methyl sulfamate or [(1R,2S,4R)-4-{[5-({4-[(1S)-1-(3-chlorophenyl)-1-hydroxyethyl]-2-thienyl}carbonyl)pyrimidin-4-yl]amino}-2-hydroxycyclopentyl]methyl sulfamate] | – | 10 to 100 | 86 | – | –
